Laboratory results reported in patent US9914958B2, “Nucleic acid-based linkers for detecting and measuring interactions” (President and Fellows of Harvard College, priority 2011, dated 2018).

Molecular target: streptavidin (Streptomyces avidinii, UniProt P22629)
Test: DNA nanoswitch gel electrophoresis assay of biotin-streptavidin dissociation kinetics
Type: binding
Details: for dissociation time: 150 mM salt, multiplied by two to represent a single biotin-streptavidin interaction
Description: Linkers were designed according to protocols for long (2580 bp) and short (600 bp) loops as described herein. […] All other oligos were the same as those used previously. Briefly, looped constructs were made by mixing a long single-stranded DNA (M13mp18, in this case) with over 121 oligos that are complementary along its length. […] The constructs come together by self-assembly with a temperature ramp heating and cooling them.
Recognizing that the nanoswitch conformation informs the receptor-ligand binding state (bound or unbound), and that the conformation can be observed on a gel, an assay to measure bulk interaction kinetics was developed. The assay, conceptually shown in FIG. 7, proceeds as follows: 1) form a looped nucleic acid (DNA) construct that relies on a receptor and a ligand being bound to each other, 2) quench the interaction between the receptor and the ligand, for example, with excess receptor or ligand to prevent rebinding following dissociation, 3) monitor the relative amount of looped construct over time to measure kinetics.
Linear double-stranded DNA constructs 7249 base pairs (bp) in length were self-assembled by combining the single-stranded M13 bacteriophage genome with 121 complementary oligos. (See also Halvorsen K et al., 2011). Two of the oligos were labeled with single biotins and placed 2580 bp from each other, such that interaction with streptavidin induced the formation of a 2580 bp loop in the structure. […] The entire array of 16 conditions with five time points each plus controls was then run on a single 96 lane agarose gel (FIG. 8).
To determine the biotin-streptavidin dissociation kinetics, an image of the gel was analyzed using publicly available software (ImageJ). The gel analysis tool in ImageJ was used to measure the integrated intensity of the band containing looped construct, and this quantity was normalized by the integrated intensity of a reference band in the same lane from a DNA ladder, which was added to the construct prior to starting experiments. Individual time constants for each experimental condition were determined by fitting a single exponential decay to the data using an error weighted least squares fitting.

streptavidin, sequence (P22629 25-183, species assumed): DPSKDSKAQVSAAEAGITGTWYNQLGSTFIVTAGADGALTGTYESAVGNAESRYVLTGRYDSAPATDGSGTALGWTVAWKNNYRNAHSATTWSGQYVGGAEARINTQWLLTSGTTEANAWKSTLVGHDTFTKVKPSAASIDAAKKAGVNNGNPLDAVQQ

## O=C(O)CCCC[C@@H]1SC[C@@H]2NC(=O)N[C@@H]21 [biotin]
25° C.
  dissociation time: 148 ± 10 h
37° C.
  dissociation time: 11.2 ± 3 h
16 conditions: four salts, four temperatures (4° C. to 50° C., 5 mM to 500 mM)
  time constants, range over the conditions tested: half of an hour to two months
16 experimental conditions, FIG. 8 table
  time constants, range (FIG. 8 legend): less than 1 hour to over 1000 hours
At a given salt concentration, from 4° C. to 50° C.
  variation of off-rate with temperature: over 100 fold
At a given temperature, from 5 mM to 500 mM
  change of off-rate with salt: less than 2 fold
High temperature
  fastest off-rate measured (as a time): 40 min
